row,melting point,SMILES
1,71.5 to 72 °C,C#Cc1ccc(C(=O)OC(C)(C)C)cc1
2,174 to 176 °C,O=C(O)c1cnccc1Cc1cc(Cl)ccc1F
3,189 °C,COc1cccc(NC(=O)c2cc(C#N)cc(C)n2)c1
4,244 to 245 °C,Oc1ccc(N2CCN(c3nncc4ccccc34)CC2)cc1
5,191 to 192 °C,Cn1c([N+](=O)[O-])cnc1-c1nnc2ccc(N=C(N)CCO)nn12
6,265 to 267 °C,COc1cc(O)c(C#N)c2cc(-c3ccc(O)c(F)c3)oc12
7,172 to 173 °C,N#Cc1ccc2sc3c(c2c1)CC(C=O)CC3 (centres undefined)
8,274 to 282 °C,COc1ccc(-c2c3nn(-c4ccc(OC)cc4)c(=O)c-3c[nH]c2C)cc1
9,155 to 158 °C,CCc1nnc2c(N(C)C)nc3ccccc3n12
10,152 to 154 °C,CC(=O)N(C(C)=O)C1=C(N2CCN(Cc3cc(=O)[nH]c(=O)[nH]3)CC2)C(=O)c2ccccc2C1=O
11,140 to 142 °C,CCOC(=O)N1CCN(c2ccc(C3=NNC(=O)CC3C)cc2[N+](=O)[O-])CC1 (centres undefined)
12,170 to 174 °C,O=C(O)c1conc1-c1ccc(F)cc1
13,194 to 196 °C,CCCCc1ncc(CC(NC(=O)CCc2ccccc2)C(=O)O)n1Cc1ccccc1Cl (centres undefined)
14,103 to 104 °C,CCCCN(CCCC)CC(=O)N1c2ccccc2N(CCCC)C(=O)c2cnc(-c3ccccc3)nc21
15,200 to 201 °C,CC(C)n1nc(-c2c(-c3ccccc3)nn3ccc(C(=O)NC(C)(C)C)cc23)ccc1=O
16,244 to 246 °C,NC1=C2C=NN=C2N(c2ccccc2)CN1c1ccccc1
17,184 °C,Cn1c(=O)cc(-c2cccc(Cl)c2)c2cc(C(=O)c3ccc(I)cc3)ccc21
18,121 to 122 °C,CN(C)C(=O)N=NC(=O)N(C)C
19,180 to 182 °C,O=C(CCc1ccccc1Cl)Nc1c(Cl)ccc2nc(N3CC[C@H](NCCO)C3)ccc12
20,168 to 170 °C,CCCc1c(SCCCOc2ccc3c(=O)cc(C(=O)OCC)oc3c2CCC)ccc2c(=O)cc(C(=O)OCC)[nH]c12
21,215 to 219 °C,CC(C)(C)OCC(NC(=O)c1ccc2c(Cl)cnc(NC(=N)N)c2c1)C(=O)OC(C)(C)C (racemic)
22,> 300 °C,O=C(O)c1ccc(-c2cc(-c3ccc(Cl)cc3)no2)cc1
23,227 to 230 °C,Cc1c(N2CC3(CC3)[C@](C)(N)C2)ccc2c(=O)c(C(=O)O)cn(C3CC3)c12
24,160 to 161 °C,COCCOc1c(F)c(Oc2ccc(S(C)(=O)=O)nc2)cc2cc(C3=NCC(CCO)S3)[nH]c12 (centres undefined)
25,191 to 193 °C,CS(=O)c1ccc(C2=NN(S(=O)(=O)c3ccc(I)cc3)CCC2)cc1 (centres undefined)
26,98 to 101 °C,CCCCCCN(C(=O)C(C)C)c1sc(CC)cc1C(=O)O
27,100 to 102 °C,COc1ccc2c(c1OC)C[C@@H](C1CCN(CCc3ccccc3)CC1)O[C@H]2CN (relative stereo)

# The remaining lines, values behind:
row,SMILES,melting point
1,COc1ccc2c(c1)C(=O)C(Cc1c[nH]c3ccccc13)CO2 (centres undefined),121 to 123 °C
2,O=C(NCc1ccccc1)c1ccnc(NC(=O)c2ccccc2)c1,174 to 176 °C
3,CCCC(O)(Cn1nc[nH]c1=S)c1ccc(Cl)cc1Cl (centres undefined),148 °C
4,CC(=O)C1=CCC2C3CCC4CC(O)CCC4(C)C3CCC12C (centres undefined),186 to 188 °C
5,CSc1nc(-c2ccncc2)n(-c2ccc(F)cc2)c(=O)c1C#N,301 to 303 °C
6,CCOC(=O)C1=C(C(OCC)OCC)NC(C)=C(C(=O)OCc2ccccc2)C1c1ccccc1[N+](=O)[O-] (centres undefined),103 to 104 °C
7,COc1nc(C)nc(NC(=NS(=O)(=O)c2cccnc2)SC)n1,146 to 149 °C
8,COc1ccc(C(=O)C(C(=O)Nc2cc(N)ccc2Cl)N2C(=O)c3ccccc3C2=O)cc1 (centres undefined),105 to 107 °C
9,O=C(Nc1ccc(CN2C(=O)[C@H]3CCC[C@H]3Nc3ccccc32)cc1)OCc1ccccc1 (relative stereo),162 °C
10,CC(CCC(=O)O)C1CCC2C3=CC=C4C(C)(C)C(O)CCC4(C)C3CCC21C (centres undefined),210 to 213 °C
11,O=[N+]([O-])c1cc(F)ccc1S(=O)(=O)c1ccccc1,127 to 129 °C
12,Clc1ccc(-c2cc(-c3ccccc3)c(-c3ccccc3)s2)cc1Cl,101 to 103 °C
13,CN1C(=O)CC[C@]2(C)c3ccc(Sc4nc5c(Br)cccc5s4)cc3CC[C@@H]12,206 to 210 °C
14,CCCOc1cc2c(cc1C(C)c1ccc(OC)cc1)OCO2 (centres undefined),84 °C
15,COC(=O)c1ccccc1C=C1C(=O)Nc2ccc(S(=O)(=O)NC(C)C)cc21,271 to 273 °C
16,Fc1ccc(-c2cc(Cl)nc3ccccc23)cc1,118 °C
17,Clc1cc2c(nn1)CCCCC2,74 to 75 °C
18,COc1ccc2oc(C(=O)OCC(C)(C)C(=O)C(C)(C)C)cc2c1,81.5 to 82.5 °C
19,CCCOc1ccc(S(=O)(=O)N2CCN(Cc3ccccc3)CC2)cc1-c1nc2cc(N)c([N+](=O)[O-])cc2c(=O)[nH]1,198 to 200 °C
20,Cc1c(CC(=O)O)c2cc(OCc3nc4ccccc4s3)ccc2n1Cc1ccc(Cl)cc1,175 to 176 °C
21,CC(C)C[C@@H]1NC(=O)O[C@H]1CCS(=O)(=O)CCc1ccccc1,100 to 101 °C

row,SMILES,melting point
1,CC(=O)N1CCc2cc(CC(C)Br)cc([N+](=O)[O-])c21 (centres undefined),119 to 120 °C
2,CC(C)CC(O)(Cn1cncn1)c1ccccc1 (centres undefined),94 to 95 °C
3,CC(=O)OCC(=O)Nc1cccc([N+](=O)[O-])c1C#N,157 to 158 °C
4,COc1c(N2CC3CCC3(NC(=O)OC(C)(C)C)C2)c(F)cc2c(=O)c(C(=O)O)cn(C3CC3)c12 (centres undefined),211 to 213 °C
5,"COC(=O)C(CCCNC(=N)N[N+](=O)[O-])NC(=O)CCCC(=O)NCc1ccccc1 (single isomer, unassigned; (-))",97 to 99 °C
6,ON=Cc1c(-c2ccccc2F)ccc2c1OCO2,197 to 198 °C
7,C=CCOC(=O)Nc1cc(-c2cccc(Cl)c2)sc1C(=O)OC,101 to 103 °C
8,O=C(Cc1ccc(Cl)c(Cl)c1)N1CCNC2CCCCC21 (centres undefined),119 to 120 °C
9,FC(F)c1nc2ccccc2n1-c1nc(NCc2ccccc2)nc(N2CCOCC2)n1,185 to 188 °C
10,N#Cc1c(C(N)=O)c2n(c1C1CC1)CCN(S(=O)(=O)c1ccc(C(F)(F)F)cc1)C2,253 to 256 °C
11,O=c1[nH]c2ccc(CCBr)cc2o1,148 to 151 °C
12,COc1ccc(NC(=O)CBr)c([N+](=O)[O-])c1,94 to 98 °C
13,CCC1(CCCCN2CCN(c3ccccn3)CC2)C(=O)Nc2c(Cl)cc(Cl)cc21 (centres undefined),144 to 146 °C
14,COC(=O)c1cc(C(C)=O)c(C(F)(F)F)cc1N,118 to 121 °C
15,C#CCn1c(=O)nc(-c2ccc3c(c2)OCO3)c2cc3c(cc21)OCO3,235 to 240 °C
16,CC(=O)C1CCC2C3CCC4CC(C(C(=O)O)C(=O)O)CCC4(C)C3CCC12C (centres undefined),214 to 215 °C
17,CCOC(=O)C(OCC)C(=O)Nc1cc(Cl)cc(Cl)c1 (centres undefined),84 to 86 °C
18,CN(c1ccc(S(C)(=O)=O)cc1)S(=O)(=O)c1cccc(NC(=O)c2ccc(S(C)=O)cc2)c1 (centres undefined),184 to 186 °C
19,CC(C)(C(=O)O)c1cc(C(F)(F)F)cc(C(F)(F)F)c1,106 to 107 °C
20,CNC(=O)N1CC(Oc2cccc(C(F)(F)F)c2)C1,145 to 147 °C
21,COc1cc(OC)nc(NC(=O)NS(=O)(=O)c2ccccc2S(=O)(=O)NC(=O)Nc2nc(OC)cc(OC)n2)n1,201 to 203 °C

# From a melting point compilation (Tetko et al.; mined from patent text by program, amines drawn as free bases though some values may be those of a salt)
